Test results reported in patent US20210038587A1, “METHODS AND COMPOSITIONS FOR TREATING NON-ERK MAPK PATHWAY INHIBITOR-RESISTANT CANCERS” (BIOMED VALLEY DISCOVERIES, INC., priority 2013, published 2021).

Key:
[1] = test system: RKO MEK1 (Q56P/+) Clone 1; assay: Single agent proliferation assay (CellTiter-Glo, 96 h); type: cell-based; details: RKO MEK1 Q56P/+ Cl.1
Method: (§1) For assessment of drug sensitivity in cell-line models of acquired resistance, drug sensitivity of dose-escalated A375 cells and isogenic RKO cells was assessed in 96-hour proliferation assays. […] For the A375 assays Alamar blue (ThermoFisher) 10% (v/v) was added and incubated for 4 h, and fluorescent product was then detected using a BMG FLUOstar.
(§2) RKO MEK1 Q56P Isogenic cells were produced by Horizon Discovery (Cambridge, UK; #HD 106-019) using a recombinant AAV-mediated gene targeting strategy. Briefly, rAAV virus was generated following transfection of the appropriate targeting vector and helper vectors in HEK293T cells, purified using an AAV purification kit (Virapur, San Diego, USA) and titrated using qPCR. Parental homozygous RKO cells (homozygous wild type for MEK1) were then infected with rAAV virus and clones that had integrated the selection cassette were identified by G418 selection and expanded. Correctly targeted clones that were heterozygous for knock-in of the MEK1 Q56P point mutation into a single allele were identified by PCR and sequencing.
(§3) Compounds were prepared from DMSO stocks to give the desired final concentrations. The final DMSO concentration was constant at 0.1%. […] CellTiter-Glo® reagent (Promega, Madison, Wis.) was added according to manufacturer's instructions and luminescence detected using the BMG FLUOstar plate reader (BMG Labtech, Ortenberg, Germany).

[2] = test system: RKO MEK1 (Q56P/+) Clone 2; assay: as above; type: cell-based; details: RKO MEK1 Q56P/+ Cl.2
Method: as §1, §2, §3

[3] = test system: MIAPaCa-2; assay: Reverse Phase Protein Analysis (RPPA); type: cell-based; details: MIAPaca2; % change from DMSO (matched cell line)
Method: Control wells were treated with DMSO at 0.1% (v/v) for 6 hours prior to cell lysate generation. Samples were then analyzed using reverse-phase protein microarray technology (Theranostics Health).
Cell lines with common alterations in BRAF and RAS were assayed: BRAF^V600E mutant lines A375, Colo205, and HT29; KRAS^G12C-mutant cell line MIAPACa-2; KRAS^G13D-mutant cell line HCT116; and AN3Ca with atypical HRAS^F82L mutation.

[4] = target: ERK1 (Homo sapiens, UniProt P27361); assay: biochemical
Method: The reaction was initiated by the addition of 65 μM of ATP. Decreased absorbance rate (340 nm) was monitored and the IC50 was determined as a function of inhibitor concentration.

[5] = target: CDK2/cyclinA (Homo sapiens, UniProt P24941); assay: Kinase counter-screen, Ki; type: biochemical
From the text: The ATP concentrations were approximately equal to the Km in all assays.

[6] = test system: RKO Parental; assay: Single agent proliferation assay (CellTiter-Glo, 96 h); type: cell-based
Method: as §1, §3

[7] = test system: upstaged A375 xenografts; assay: Upstaged A375 xenograft model, BVD-523 in combination with dabrafenib; type: in vivo, mice; details: 100 mg/kg BID
Method: Combination dosing was stopped on Day 20 to monitor for tumor regrowth. Animals were monitored individually and euthanized when each tumor reached an endpoint volume of 2000 mm^3, or the final day (Day 45), whichever came first, and median time to endpoint (TTE) calculated. The combination was also evaluated in an upstaged A375 model where larger tumors in the range 228-1008 mm^3 were evaluated. Here, mice were randomized into 1 group (Group 1) of 14 and 4 groups (Groups 2-5) of 20. […] Tumors were measured twice weekly. Combination dosing was stopped on Day 42 to monitor for tumor regrowth through study end (Day 60). Treatment outcome was determined from % TGD, defined as the percent increase in median TTE for treated versus control mice, with differences between groups analyzed via log rank survival analysis. […] Mice were also monitored for CR and PR responses. Animals with a CR at the end of the study were additionally classified as TFS.

[8] = test system: A375; assay: Reverse Phase Protein Analysis (RPPA); type: cell-based, human; details: % change from DMSO (matched cell line)
Procedure, shortened: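 Cells were treated 6 h before lysis, with 0.1% (v/v) DMSO as control. Lysates were analysed by reverse-phase protein microarray. Protein changes are expressed as percentage change from DMSO-treated parental cells.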

Chain of ERK1 (P27361 whole entry): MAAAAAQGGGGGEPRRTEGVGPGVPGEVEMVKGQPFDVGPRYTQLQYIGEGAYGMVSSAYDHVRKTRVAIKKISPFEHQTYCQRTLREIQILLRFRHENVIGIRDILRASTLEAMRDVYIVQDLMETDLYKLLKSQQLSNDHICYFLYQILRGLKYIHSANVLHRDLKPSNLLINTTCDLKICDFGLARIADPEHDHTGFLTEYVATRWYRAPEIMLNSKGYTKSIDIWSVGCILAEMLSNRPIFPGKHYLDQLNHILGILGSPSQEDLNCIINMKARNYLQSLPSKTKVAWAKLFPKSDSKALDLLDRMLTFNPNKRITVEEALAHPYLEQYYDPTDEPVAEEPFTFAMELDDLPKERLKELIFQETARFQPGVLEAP

## CC(C)Nc1cc(-c2c[nH]c(C(=O)N[C@H](CO)c3cccc(Cl)c3)c2)c(Cl)cn1 [BVD-523]
[1]
  IC50: 170 nM
[2]
  IC50: 180 nM
[3]
  Avg (4ebp1 T70): −9.42%
  Avg (Akt S473): 9.9%
  Avg (Akt): 23.63%
  Avg (Bad S136): −4.12%
  Avg (Bad S155): −5.65%
  Avg (Bak): −15.15%
  Avg (Bax): 23.44%
  Avg (Bcl 2): 5.86%
  Avg (Bcl2 S70): 0.89%
  Avg (Bcl 2 T56): −1.78%
  Avg (Bim): −12.51%
  Avg (CREB S133): −19.26%
  Avg (Caspase 3 CL D175): 22.35%
  Avg (Caspase 7 Cl D198): −6.44%
  Avg (Chk1): −3.51%
  Avg (Chk1 S345): 1.2%
  Avg (Cyclin D1): −37.9%
  Avg (ERK 1 2): −40.33%
  Avg (ERK 1 2 T202 Y204): 209.14%
  Avg (MAK1 S360): −10.72%
  Avg (Mcl1): −7.27%
  Avg (Raptor S792): 5.95%
  Avg (Raptor): 21.15%
  Avg (Stat1): 8.62%
  Avg (Stat3): −1.23%
  Avg (bad S112): −30.29%
  Avg (c Fos): −18.44%
  Avg (c Myc): −8.77%
  Avg (mTOR S2448): −11.73%
  Avg (mTOR S2481): −0.24%
  Avg (mTOR): −3.27%
  Avg (p70 S6 Kinase): −3.59%
  Avg (p90 RSK S380): −35%
  Avg(S6 Ribo Prot S235 236): −79.46%
  Avg(S6 Ribo Prot S240 244): −88.03%
  Avg(Tuberin TSC2 Y1571): 1.7%
  Avg(p70 S6 Kinase S371 S394): −28.27%
  Avg(p70 S6 Kinase T389 T412): −39.23%
[4]; Ki against recombinant ERK1, tight-binding
  Ki: < 0.3 nM
[4]; Ki, ERK1
  Ki: ≤ 0.3 nM
[5]
  Ki: 360 nM
[6]
  IC50: 200 nM
[7]
  PRs: 2
[8]
  Avg (4ebp1 T70): −31.82%
  Avg (Akt S473): 73.07%
  Avg (Akt): −14.03%
  Avg (Bad S136): 12.31%
  Avg (Bad S155): −21.9%
  Avg (Bak): −3.26%
  Avg (Bax): −6.98%
  Avg (Bcl 2): −12.55%
  Avg (Bcl2 S70): −7.91%
  Avg (Bcl 2 T56): −8.54%
  Avg (Bim): 14.57%
  Avg (CREB S133): −12.65%
  Avg (Caspase 3 CL D175): −8.06%
  Avg (Caspase 7 Cl D198): 3.18%
  Avg (Chk1): 16.94%
  Avg (Chk1 S345): −7.43%
  Avg (Cyclin D1): −81.45%
  Avg (ERK 1 2): −22.91%
  Avg (ERK 1 2 T202 Y204): 43.34%
  Avg (MAK1 S360): 3.35%
  Avg (Mcl1): 10.67%
  Avg (Raptor S792): −10.33%
  Avg (Raptor): −7.77%
  Avg (Rictor): −20.11%
  Avg (Stat1): 1.32%
  Avg (Stat3): 6.02%
  Avg (bad S112): −72.37%
  Avg (c Fos): 4.39%
  Avg (c Myc): 2.56%
  Avg (mTOR S2448): −27.87%
  Avg (mTOR S2481): −3.36%
  Avg (mTOR): 0.2%
  Avg (p70 S6 Kinase): −7.6%
  Avg (p90 RSK S380): −71%
  Avg(S6 Ribo Prot S235 236): −95.3%
  Avg(S6 Ribo Prot S240 244): −91.98%
  Avg(Tuberin TSC2 Y1571): −6.32%
  Avg(p70 S6 Kinase S371 S394): −8.58%
  Avg(p70 S6 Kinase T389 T412): −23.79%
